Test results reported in PMC6274539, “Photoactivatable Caged Prodrugs of VEGFR-2 Kinase Inhibitors” (Molecules, 2016).

Assays:
Type in all cases: biochemical
BTK = BTK (Homo sapiens, UniProt Q06187); assay: kinase profiling, radioactive filter binding assay; settings: 0.1 µM compound, assay duplicates; read-out: residual activity of BTK, mean percentage activity
Procedure: (§1) The used method was a radioactive filter binding assay using ^33P ATP, for details see references. The substances were dissolved in DMSO at tested concentration of 0.1 µM. The mean percentage residual kinase activity and standard deviations of assay duplicates were determined. Analyses were performed by the International Center for Kinase Profiling at the University of Dundee, UK.

HIPK2 = HIPK2 (Homo sapiens, UniProt Q9H2X6); assay: kinase profiling, radioactive filter binding assay; settings: 0.1 µM compound, assay duplicates; read-out: residual activity of HIPK2, mean percentage activity
Chain of HIPK2 (Q9H2X6 whole entry): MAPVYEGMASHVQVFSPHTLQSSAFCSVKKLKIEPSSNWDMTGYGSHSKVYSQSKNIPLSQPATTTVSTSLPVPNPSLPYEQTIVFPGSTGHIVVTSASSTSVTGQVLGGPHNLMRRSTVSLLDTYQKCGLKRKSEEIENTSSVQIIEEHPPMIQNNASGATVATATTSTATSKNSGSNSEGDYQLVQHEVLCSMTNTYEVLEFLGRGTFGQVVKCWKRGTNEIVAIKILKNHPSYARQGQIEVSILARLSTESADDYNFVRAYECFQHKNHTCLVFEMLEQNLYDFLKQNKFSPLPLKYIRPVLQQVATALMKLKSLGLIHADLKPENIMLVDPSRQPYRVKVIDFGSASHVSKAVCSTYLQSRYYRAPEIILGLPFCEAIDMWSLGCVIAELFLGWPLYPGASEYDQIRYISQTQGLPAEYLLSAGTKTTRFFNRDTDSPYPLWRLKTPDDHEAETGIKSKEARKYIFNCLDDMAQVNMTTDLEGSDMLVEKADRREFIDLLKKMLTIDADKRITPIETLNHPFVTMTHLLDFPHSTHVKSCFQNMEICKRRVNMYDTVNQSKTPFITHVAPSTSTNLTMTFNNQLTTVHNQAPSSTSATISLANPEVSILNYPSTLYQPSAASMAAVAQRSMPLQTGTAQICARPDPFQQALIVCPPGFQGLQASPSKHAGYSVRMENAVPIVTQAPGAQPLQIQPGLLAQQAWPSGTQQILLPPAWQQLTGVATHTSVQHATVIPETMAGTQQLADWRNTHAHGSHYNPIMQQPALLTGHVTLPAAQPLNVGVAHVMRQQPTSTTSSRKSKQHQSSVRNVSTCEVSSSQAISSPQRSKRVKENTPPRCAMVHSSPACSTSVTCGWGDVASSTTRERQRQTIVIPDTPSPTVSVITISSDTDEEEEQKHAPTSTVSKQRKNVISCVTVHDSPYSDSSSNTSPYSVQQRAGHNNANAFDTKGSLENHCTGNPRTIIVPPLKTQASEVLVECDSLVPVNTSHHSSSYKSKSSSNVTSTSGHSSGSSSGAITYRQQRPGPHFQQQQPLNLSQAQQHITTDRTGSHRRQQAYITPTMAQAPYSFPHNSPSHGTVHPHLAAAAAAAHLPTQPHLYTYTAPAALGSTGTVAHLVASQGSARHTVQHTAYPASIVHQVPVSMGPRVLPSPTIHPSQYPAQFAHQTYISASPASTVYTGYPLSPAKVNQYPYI
Procedure: as §1

IKKb = IKKb (Homo sapiens, UniProt O14920); assay: kinase profiling, radioactive filter binding assay; settings: 0.1 µM compound, assay duplicates; read-out: residual activity of IKKb, mean percentage activity
Chain of IKKb (O14920 whole entry): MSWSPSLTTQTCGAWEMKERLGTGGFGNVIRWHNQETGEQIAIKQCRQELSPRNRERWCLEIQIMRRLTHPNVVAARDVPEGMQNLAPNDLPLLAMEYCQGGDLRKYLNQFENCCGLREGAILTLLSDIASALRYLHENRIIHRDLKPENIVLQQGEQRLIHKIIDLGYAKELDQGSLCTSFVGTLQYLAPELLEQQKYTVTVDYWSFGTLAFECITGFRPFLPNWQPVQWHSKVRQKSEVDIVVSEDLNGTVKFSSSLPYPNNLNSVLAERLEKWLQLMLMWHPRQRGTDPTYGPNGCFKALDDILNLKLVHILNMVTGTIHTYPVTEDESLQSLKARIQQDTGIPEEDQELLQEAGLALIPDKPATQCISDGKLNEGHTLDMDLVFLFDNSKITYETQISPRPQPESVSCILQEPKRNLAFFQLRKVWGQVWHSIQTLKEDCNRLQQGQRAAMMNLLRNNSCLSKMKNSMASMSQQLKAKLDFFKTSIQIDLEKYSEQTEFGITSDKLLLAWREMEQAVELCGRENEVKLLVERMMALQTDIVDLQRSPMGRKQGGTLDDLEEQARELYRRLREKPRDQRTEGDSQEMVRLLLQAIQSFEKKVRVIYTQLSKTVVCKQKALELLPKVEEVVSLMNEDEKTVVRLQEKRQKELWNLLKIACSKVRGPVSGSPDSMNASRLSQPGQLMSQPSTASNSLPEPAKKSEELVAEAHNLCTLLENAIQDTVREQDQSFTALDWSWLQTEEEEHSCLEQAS
Procedure: as §1

RSK2 = RSK2 (Homo sapiens, UniProt P51812); assay: kinase profiling, radioactive filter binding assay; settings: 0.1 µM compound, assay duplicates; read-out: residual activity of RSK2, mean percentage activity
Procedure: as §1

ERK8 = ERK8 (Homo sapiens, UniProt Q8TD08); assay: kinase profiling, radioactive filter binding assay; settings: 0.1 µM compound, assay duplicates; read-out: residual activity of ERK8, mean percentage activity
Procedure: as §1

PKC zeta = PKC zeta (Homo sapiens, UniProt Q05513); assay: kinase profiling, radioactive filter binding assay; settings: 0.1 µM compound, assay duplicates; read-out: residual activity of PKC zeta, mean percentage activity
Chain of PKC zeta (Q05513 whole entry): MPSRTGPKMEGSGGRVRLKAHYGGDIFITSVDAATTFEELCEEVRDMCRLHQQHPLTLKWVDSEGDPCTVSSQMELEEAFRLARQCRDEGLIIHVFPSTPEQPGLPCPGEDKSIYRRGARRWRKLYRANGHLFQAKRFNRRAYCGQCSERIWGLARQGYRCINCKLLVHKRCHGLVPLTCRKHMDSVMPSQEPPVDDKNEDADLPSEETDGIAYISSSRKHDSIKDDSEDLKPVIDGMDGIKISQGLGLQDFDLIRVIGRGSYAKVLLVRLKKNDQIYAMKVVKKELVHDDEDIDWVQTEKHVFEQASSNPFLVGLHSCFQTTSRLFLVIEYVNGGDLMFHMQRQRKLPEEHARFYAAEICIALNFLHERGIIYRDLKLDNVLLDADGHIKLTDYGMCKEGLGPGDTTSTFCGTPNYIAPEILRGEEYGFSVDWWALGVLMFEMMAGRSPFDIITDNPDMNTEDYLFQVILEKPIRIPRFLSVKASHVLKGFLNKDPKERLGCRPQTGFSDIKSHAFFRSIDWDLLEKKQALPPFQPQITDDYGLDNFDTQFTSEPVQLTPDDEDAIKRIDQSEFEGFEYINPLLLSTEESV
Procedure: as §1

PAK4 = PAK4 (Homo sapiens, UniProt O96013); assay: kinase profiling, radioactive filter binding assay; settings: 0.1 µM compound, assay duplicates; read-out: residual activity of PAK4, mean percentage activity
Chain of PAK4 (O96013 whole entry): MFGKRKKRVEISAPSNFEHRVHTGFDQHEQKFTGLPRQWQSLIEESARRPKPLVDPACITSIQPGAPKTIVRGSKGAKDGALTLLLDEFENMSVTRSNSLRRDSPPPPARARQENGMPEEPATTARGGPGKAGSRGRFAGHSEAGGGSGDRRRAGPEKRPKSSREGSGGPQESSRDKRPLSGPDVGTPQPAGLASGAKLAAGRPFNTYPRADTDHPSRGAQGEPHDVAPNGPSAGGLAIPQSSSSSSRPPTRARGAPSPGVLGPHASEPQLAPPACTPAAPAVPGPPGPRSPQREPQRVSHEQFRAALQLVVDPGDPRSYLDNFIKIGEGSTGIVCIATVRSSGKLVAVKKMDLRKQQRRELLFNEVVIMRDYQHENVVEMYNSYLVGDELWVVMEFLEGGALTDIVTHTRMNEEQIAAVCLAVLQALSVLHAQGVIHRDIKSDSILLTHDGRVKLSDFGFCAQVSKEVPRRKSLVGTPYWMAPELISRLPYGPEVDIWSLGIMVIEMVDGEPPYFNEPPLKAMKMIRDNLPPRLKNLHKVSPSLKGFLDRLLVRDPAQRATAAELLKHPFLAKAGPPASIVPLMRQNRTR
Procedure: as §1

EFK2 = EFK2 (Homo sapiens, UniProt O00418); assay: kinase profiling, radioactive filter binding assay; settings: 0.1 µM compound, assay duplicates; read-out: residual activity of EFK2, mean percentage activity
Procedure: as §1

CK2 = CK2 (Homo sapiens, UniProt P68400); assay: kinase profiling, radioactive filter binding assay; settings: 0.1 µM compound, assay duplicates; read-out: residual activity of CK2, mean percentage activity
Procedure: as §1

p38a MAPK = p38a MAPK (Homo sapiens, UniProt Q16539); assay: kinase profiling, radioactive filter binding assay; settings: 0.1 µM compound, assay duplicates; read-out: residual activity of p38a MAPK, mean percentage activity
Procedure: as §1

CAMKKb = CAMKKb (Homo sapiens, UniProt Q96RR4); assay: kinase profiling, radioactive filter binding assay; settings: 0.1 µM compound, assay duplicates; read-out: residual activity of CAMKKb, mean percentage activity
Procedure: as §1

SYK = SYK (Homo sapiens, UniProt P43405); assay: kinase profiling, radioactive filter binding assay; settings: 0.1 µM compound, assay duplicates; read-out: residual activity of SYK, mean percentage activity
Procedure: as §1

IGF1-R = IGF1-R (Homo sapiens, UniProt P08069); assay: kinase profiling, radioactive filter binding assay; settings: 0.1 µM compound, assay duplicates; read-out: residual activity of IGF1-R, mean percentage activity
Procedure: as §1

PIM1 = PIM1 (Homo sapiens, UniProt P11309); assay: kinase profiling, radioactive filter binding assay; settings: 0.1 µM compound, assay duplicates; read-out: residual activity of PIM1, mean percentage activity
Procedure: as §1

JNK1 = JNK1 (Homo sapiens, UniProt P45983); assay: kinase profiling, radioactive filter binding assay; settings: 0.1 µM compound, assay duplicates; read-out: residual activity of JNK1, mean percentage activity
Procedure: as §1

IRR = IRR (Homo sapiens, UniProt P14616); assay: kinase profiling, radioactive filter binding assay; settings: 0.1 µM compound, assay duplicates; read-out: residual activity of IRR, mean percentage activity
Procedure: as §1

NEK2a = NEK2a (Homo sapiens, UniProt P51955); assay: kinase profiling, radioactive filter binding assay; settings: 0.1 µM compound, assay duplicates; read-out: residual activity of NEK2a, mean percentage activity
Procedure: as §1

CHK1 = CHK1 (Homo sapiens, UniProt O14757); assay: kinase profiling, radioactive filter binding assay; settings: 0.1 µM compound, assay duplicates; read-out: residual activity of CHK1, mean percentage activity
Procedure: as §1

PIM2 = PIM2 (Homo sapiens, UniProt Q9P1W9); assay: kinase profiling, radioactive filter binding assay; settings: 0.1 µM compound, assay duplicates; read-out: residual activity of PIM2, mean percentage activity
Procedure: as §1

VEGFR-2 = target: T1, VEGFR-2 (Homo sapiens, UniProt P35968); assay: radiometric 33PanQinase VEGFR-2 kinase assay (ProQinase); settings: 10 semi-log concentrations, single samples, 1% DMSO
T1 construct: determined using VEGFR-2 protein kinase by a radiometric ^33PanQinase® assay; purchased ProQinase (Freiburg, Germany)
Procedure: As predicted by molecular modeling, insertion of the protecting group DMNB should diminish the inhibitory activity both of the maleimide 1 and the carbazole 3. […] The IC50 values towards VEGFR-2 were determined (Table 1).
The VEGFR-2 IC50 profile for 1, 3, 4 and 5 was determined using VEGFR-2 protein kinase by a radiometric ^33PanQinase® assay. […] Prior to testing, the compounds were dissolved to prepare 1 × 10^−2 M stock solutions in 100% DMSO. The final DMSO concentration in the reaction cocktails was 1% in all cases. Analyses were performed by ProQinase (Freiburg, Germany).

PLK1 (Okadaic Acid) = PLK1 (Okadaic Acid) (Homo sapiens, UniProt P53350); assay: kinase profiling, radioactive filter binding assay; settings: 0.1 µM compound, assay duplicates; read-out: residual activity of PLK1 (Okadaic Acid), mean percentage activity
Procedure: (§2) To compare the active inhibitors 1 and 3, a selectivity profile over 79 kinases was recorded. The residual kinase activities are presented as a heatmap (Figure 6, for raw data see Supplementary Table S1).
as §1, with “Compounds 1 and 3 were screened against 79 kinases. The used” for “The used”

SmMLCK = SmMLCK (Homo sapiens, UniProt Q15746); assay: kinase profiling, radioactive filter binding assay; settings: 0.1 µM compound, assay duplicates; read-out: residual activity of SmMLCK, mean percentage activity
Chain of SmMLCK (Q15746 923-1914): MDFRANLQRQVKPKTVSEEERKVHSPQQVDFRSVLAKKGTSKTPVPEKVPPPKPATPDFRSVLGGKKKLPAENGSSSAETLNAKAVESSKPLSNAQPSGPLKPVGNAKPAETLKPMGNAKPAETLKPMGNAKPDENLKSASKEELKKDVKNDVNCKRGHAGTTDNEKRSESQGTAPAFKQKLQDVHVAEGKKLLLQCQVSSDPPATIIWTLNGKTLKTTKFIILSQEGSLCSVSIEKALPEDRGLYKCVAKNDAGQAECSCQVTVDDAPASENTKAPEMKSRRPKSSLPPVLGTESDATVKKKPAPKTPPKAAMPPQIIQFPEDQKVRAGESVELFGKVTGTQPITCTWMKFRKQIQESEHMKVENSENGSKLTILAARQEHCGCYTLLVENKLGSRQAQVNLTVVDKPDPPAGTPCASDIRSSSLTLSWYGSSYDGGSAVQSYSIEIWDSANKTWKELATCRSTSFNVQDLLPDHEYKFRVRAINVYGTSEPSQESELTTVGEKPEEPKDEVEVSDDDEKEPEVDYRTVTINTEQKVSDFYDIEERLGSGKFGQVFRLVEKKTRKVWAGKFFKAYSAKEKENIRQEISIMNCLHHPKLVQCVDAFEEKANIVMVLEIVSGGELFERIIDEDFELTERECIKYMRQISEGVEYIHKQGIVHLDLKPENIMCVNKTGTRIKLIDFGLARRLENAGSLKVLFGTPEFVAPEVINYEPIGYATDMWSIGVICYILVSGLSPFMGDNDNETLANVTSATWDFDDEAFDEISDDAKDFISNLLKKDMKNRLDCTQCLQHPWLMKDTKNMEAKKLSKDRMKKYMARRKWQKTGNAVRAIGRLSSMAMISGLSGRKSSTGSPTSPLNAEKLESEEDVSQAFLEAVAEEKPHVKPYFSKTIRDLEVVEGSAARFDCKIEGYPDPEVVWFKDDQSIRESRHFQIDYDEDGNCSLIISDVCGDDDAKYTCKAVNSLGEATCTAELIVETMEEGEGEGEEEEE
Procedure: as §2
as §1, with “Compounds 1 and 3 were screened against 79 kinases. The used” for “The used”

Chain of BTK (Q06187 whole entry): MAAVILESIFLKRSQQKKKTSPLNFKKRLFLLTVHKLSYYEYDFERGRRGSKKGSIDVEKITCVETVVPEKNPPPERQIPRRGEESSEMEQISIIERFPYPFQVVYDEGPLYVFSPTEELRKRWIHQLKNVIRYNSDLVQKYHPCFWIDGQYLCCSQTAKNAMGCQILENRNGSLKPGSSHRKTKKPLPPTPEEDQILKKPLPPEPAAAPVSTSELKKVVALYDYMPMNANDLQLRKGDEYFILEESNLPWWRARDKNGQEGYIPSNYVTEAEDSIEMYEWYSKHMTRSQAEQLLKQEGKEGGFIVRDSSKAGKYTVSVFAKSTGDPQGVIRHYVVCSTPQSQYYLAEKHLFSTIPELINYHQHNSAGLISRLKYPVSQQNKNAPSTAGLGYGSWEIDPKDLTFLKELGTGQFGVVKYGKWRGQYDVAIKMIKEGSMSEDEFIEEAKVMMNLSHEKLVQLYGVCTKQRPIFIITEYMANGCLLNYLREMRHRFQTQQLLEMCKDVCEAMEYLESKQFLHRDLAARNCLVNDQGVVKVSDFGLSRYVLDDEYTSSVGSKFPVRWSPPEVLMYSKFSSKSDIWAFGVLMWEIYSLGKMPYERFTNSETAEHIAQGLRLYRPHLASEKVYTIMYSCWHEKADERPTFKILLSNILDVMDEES

| Structure (SMILES) | remaining activity at 0.1 µM (BTK) | remaining activity at 0.1 µM (HIPK2) | remaining activity at 0.1 µM (IKKb) | remaining activity at 0.1 µM (RSK2) | remaining activity at 0.1 µM (ERK8) | remaining activity at 0.1 µM (PKC zeta) | remaining activity at 0.1 µM (PAK4) | remaining activity at 0.1 µM (EFK2) | remaining activity at 0.1 µM (CK2) | remaining activity at 0.1 µM (p38a MAPK) | remaining activity at 0.1 µM (CAMKKb) | remaining activity at 0.1 µM (SYK) | remaining activity at 0.1 µM (IGF1-R) | remaining activity at 0.1 µM (PIM1) | remaining activity at 0.1 µM (JNK1) | remaining activity at 0.1 µM (IRR) | remaining activity at 0.1 µM (NEK2a) | remaining activity at 0.1 µM (CHK1) | remaining activity at 0.1 µM (PIM2) | IC50 (VEGFR-2) | further results |
| --- | --- | --- | --- | --- | --- | --- | --- | --- | --- | --- | --- | --- | --- | --- | --- | --- | --- | --- | --- | --- | --- |
| COc1cc2c3c(c4c5ccccc5[nH]c4c2c(OC)c1OC)C(=O)NC3=O [Compound 3, 5,6,7-Trimethoxybenzo[a]pyrrolo[3,4-c]carbazole-1,3(2H,8H)-dione] | 90% | 7% | 113% | 62% | 11% | 98% | 55% | 109% | 91% | 78% | 49% | 86% | 65% | 5% | 96% | 41% | 91% | 34% | 115% | 152 nM | remaining activity at 0.1 µM (PLK1 (Okadaic Acid)): 83%; remaining activity at 0.1 µM (SmMLCK): 30% |
| COc1cc(C2=C(c3c[nH]c4ccccc34)C(=O)NC2=O)cc(OC)c1OC [Compound 1, 3-(1H-Indol-3-yl)-4-(3,4,5-trimethoxyphenyl)-1H-pyrrole-2,5-dione] | 93% | 23% | 102% | 91% | 46% | 102% | 75% | 104% | 94% | 89% | 81% | 85% | 90% | 14% | 96% | 58% | 87% | 72% | 115% | 5 nM | remaining activity at 0.1 µM (PLK1 (Okadaic Acid)): 85%; remaining activity at 0.1 µM (SmMLCK): 60% |
